In PubChem BioAssay (NCI):
Values joined by “and” are separate entries in the source; they are usually repeats but may differ in a detail not shown here. Equal entries are not always repeated.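 Assay format: 96-well plates, 48-hour exposure. At the GI50, growth is halved. TGI marks complete inhibition of growth.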

Tests used:
Experiment in all cases: growth of human tumour cells (NCI), 48 h
ACHN renal = tested on: ACHN renal
BT-549 breast = tested on: BT-549 breast
COLO 205 colon = tested on: COLO 205 colon
HL-60(TB) leukemia = tested on: HL-60(TB) leukemia
KM12 colon = tested on: KM12 colon
SK-MEL-2 melanoma = tested on: SK-MEL-2 melanoma
SK-MEL-28 melanoma = tested on: SK-MEL-28 melanoma
SNB-19 CNS = tested on: SNB-19 CNS
SW-620 colon = tested on: SW-620 colon
T-47D breast = tested on: T-47D breast

| Compound | GI50 (ACHN renal) | TGI (ACHN renal) | GI50 (BT-549 breast) | TGI (BT-549 breast) | GI50 (COLO 205 colon) | TGI (COLO 205 colon) | GI50 (HL-60(TB) leukemia) | TGI (HL-60(TB) leukemia) | GI50 (KM12 colon) | TGI (KM12 colon) | GI50 (SK-MEL-2 melanoma) | GI50 (SK-MEL-28 melanoma) | TGI (SK-MEL-28 melanoma) | GI50 (SNB-19 CNS) | TGI (SNB-19 CNS) | GI50 (SW-620 colon) | TGI (SW-620 colon) | GI50 (T-47D breast) | TGI (T-47D breast) | TGI (SK-MEL-2 melanoma) |
| --- | --- | --- | --- | --- | --- | --- | --- | --- | --- | --- | --- | --- | --- | --- | --- | --- | --- | --- | --- | --- |
| O=C(NOCCO)c1cc(CN2OCCCC2=O)c(F)c(F)c1Nc1ccc(I)cc1F | 4.28 µM | > 100 µM | 17.3 µM and > 10 µM | > 100 µM | < 0.01 µM and 0.00219 µM | 14.9 µM and > 10 µM | < 0.01 µM and 0.00194 µM | > 57 µM | 0.0561 µM and 0.0719 µM | > 100 µM | < 0.01 µM and 0.00324 µM | < 0.01 µM and 0.00249 µM | 0.0712 µM and 0.124 µM | 3.68 µM and 1.64 µM | > 100 µM | < 0.01 µM and 0.00529 µM | > 100 µM | 29.4 µM and > 10 µM | > 100 µM |  |
| Nc1ccn(C2OC(C(OC3OC(CO)C(O)C(N)C3O)C(O)C(O)C(O)C(O)CO)C(N)C(O)C2O)c(=O)n1 (centres undefined) |  | > 100 µM |  | 99 µM |  | > 100 µM |  | > 100 µM |  | > 100 µM |  |  | > 100 µM |  | > 100 µM |  | > 100 µM |  | > 100 µM | > 100 µM |
| CC(/C=N/N=C(N)N)=N\N=C(N)N | > 43.5 µM | 2110 µM | 40.9 µM | 928 µM | 4.26 µM | 33.1 µM and 21.5 µM | 69.1 µM | 578 µM | 21.5 µM | 34.4 µM | 28.9 µM | > 80.2 µM | 363 µM | 14.5 µM | 722 µM | 15 µM | 2070 µM | 5.02 µM | 31 µM and 23.4 µM | 149 µM |
| CCCN1CCC=C(c2ccc(Nc3nc(Nc4ccccc4C(N)=O)c4cc[nH]c4n3)c(C)c2)C1 | 15.4 µM | > 25 µM | 17.2 µM | > 25 µM | 2.37 µM | 8.68 µM | 0.387 µM | 6.84 µM | 9.48 µM | > 25 µM | 2.51 µM | > 23.8 µM | > 25 µM | > 25 µM | > 25 µM | 1.48 µM | > 25 µM | > 18.3 µM | > 25 µM | 15.4 µM |
| N#C/C(=C\c1ccc2[nH]ccc2c1)C(=O)c1ccc(O)c(O)c1 |  | > 100 µM |  | > 100 µM |  | > 100 µM |  | > 95.1 µM |  | > 100 µM |  |  | > 100 µM |  | > 100 µM |  | > 100 µM |  | > 100 µM | > 100 µM |
| COc1ccc(-c2nc(C(=O)c3ccccc3)n(CC(=O)c3ccc(Cl)cc3)c2-c2ccc(OC)cc2)cc1 | > 100 µM | > 100 µM | 85.6 µM | > 100 µM | > 100 µM | > 100 µM | 46 µM | > 100 µM | > 100 µM | > 100 µM | > 100 µM | > 100 µM | > 100 µM | > 100 µM | > 100 µM | > 100 µM | > 100 µM | > 100 µM | > 100 µM | > 100 µM |
| CNC(c1ccncc1)C(NC)c1ccncc1 (centres undefined) |  | > 100 µM |  | > 100 µM |  | > 100 µM |  | > 100 µM |  | > 100 µM |  |  | > 100 µM |  | > 100 µM |  | > 100 µM |  | > 100 µM | > 100 µM |
